Measurements reported in BindingDB's records for doi:10.1021/jm00006a008 (Glaxo Research Institute, 1995).

Assay: Inhibitory concentration against topoisomerase I obtained from calf thymus

SMILES	IC50
CC[C@]1(O)C(=O)OCc2c1cc1n(c2=O)Cc2c-1nc1ccc(C)cc1c2C(=O)O [(R)-4-Ethyl-4-hydroxy-9-methyl-3,13-dioxo-3,4,12,13-tetrahydro-1H-2-oxa-6,12a-diaza-dibenzo[b,h]fluorene-11-carboxylic acid]	1900 nM
CCC1(O)C(=O)OCc2c1cc1n(c2=O)Cc2c-1nc1cccc(I)c1c2C(=O)O (configuration not stated) [4-Ethyl-4-hydroxy-10-iodo-3,13-dioxo-3,4,12,13-tetrahydro-1H-2-oxa-6,12a-diaza-dibenzo[b,h]fluorene-11-carboxylic acid]	1300 nM
